Reference: patent publication US20250057822A1, “PSYCHO[…] TREATING HEARING-RELATED DISORDERS” (THE REGENTS OF THE UNIVERSITY OF CALIFORNIA, priority 2021, published 2025)

What was measured:
[1] = test system: C57/B6 female mice; assay: Auditory brainstem response (ABR) assay, wave I amplitude; format: in vivo; conditions: 1 mg/kg, 24 h post-treatment vs baseline (5-6 days pre-treatment), p<0.01, n=3
Method: The ABR amplitudes were analyzed at baseline (5-6 days pre-treatment) and 24 h post-treatment of vehicle (FIG. 2A and FIG. 2B) or 1 mg/kg of the psychoplastogen psilocin (FIG. 2C and FIG. 2D) at 8 and 16 kHz. Data are presented as mean±SEM. […] N=3 8-week old C57/B6 female mice per condition.
Auditory brainstem responses (ABRs) were recorded at baseline (5-6 days prior to treatment) and 24 h post treatment with psilocin (1 mg/kg). Mice were anesthetized via i.p. injections of ketamine (90 mg/kg) and xylazine (20 mg/kg). Subcutaneous electrodes were placed behind the right pinna (inverting) and vertex (active). A ground electrode was placed in the left leg of the mouse. Stimuli were 5-ms tone pips (2 ms cos2 rise-fall) delivered at 21/s with alternating stimulus polarity. Recorded electrical responses were filtered (300 Hz to 3 kHz) and averaged using BioSig software (TDT). The sound intensity level was decreased in 5 dB increments from 90 dB SPL-20 dB SPL. At each sound level 512 responses were averaged.
Wave I amplitudes were measured from the estimated baseline prior to the response to the peak of wave I in μV. ABR wave I amplitudes were analyzed at baseline (5-6 days pre-treatment) and 24 h post-treatment of psilocin (1 mg/kg). Data analyses and statistics were performed using Prism version 9.4 (GraphPad) and presented as mean±SEM. […]

[2] = test system: inner hair cell ribbon synapses (organ of Corti); assay: Inner hair cell ribbon synapse density 24 h after psilocin treatment; format: in vivo, mice; conditions: 1 mg/kg, 24 h after treatment, mean±SEM
Method: C57/B6 female mice, aged 8-weeks-old were treated with psilocin (1 mg/kg) (n=3) and Vehicle (0.9% saline) (n=2). […] Synapse density increase was not significant in the 8 kHz region (Vehicle: 16.50±3.826, psilocin: 17.79±3.826, P=0.5554). For each animal, 17-22 inner hair cells were quantified per frequency (8 kHz and 16 kHz regions of the organ of Corti). Data are presented as mean±SEM.*p<0.05.
8-week old C57/B6 mice were injected with 1 mg/kg psilocin or vehicle control (0).9% saline). 24 h later, mice were euthanized then inner ear tissues were collected for immunofluorescence. Isolated cochlea were punched into oval and round windows using a syringe needle and rinsed/fixed with 4% paraformaldehyde in 1×cold PBS. Then, cochlea were further fixed in 4% paraformaldehyde in 1×cold PBS for additional 2 hours at 4C0. Following fixation, samples were rinsed 3×20 min in PBS and dissected under a stereomicroscope to the three turns: apical, middle and basal. Tissues were permeabilized in PBS+0.25% Triton X-100 solution for 10 min at room temperature on a rocking platform; blocked with 10% goat serum and 25 mM glycine for 1 h at RT. […]

CN(C)CCc1c[nH]c2cccc(O)c12 [psilocin]
ABR wave I amplitude, change from baseline ([1]; 8 kHz): significantly increased | ABR wave I amplitude, change from baseline ([1]; 16 kHz): significantly increased | inner hair cell ribbon synapse density ([2]; 8 kHz region, not significant vs vehicle 16.50±3.826, P=0.5554): 17.79±3.826 | inner hair cell ribbon synapse density ([2]; 16 kHz region, significant vs vehicle 16±3.826, P=0.0169): 23.27±3.826
